Data taken from US11154563B2, “Immunoproteasome inhibitors” (Principia Biopharma Inc., priority 2017, dated 2021).

Columns and labels:
[1] = target: constitutive proteasome β5c unit (Homo sapiens, UniProt P20618+P28074); experiment: Caliper-based proteasome enzymatic activity assay, β5c; type: biochemical; details: human recombinant constitutive proteasome 0.3 nM, FAM-peptide substrate 1 μM, 3 h at rt; read-out: β5c subunit IC50
Description: (§1) A Caliper-based proteasome assay (Caliper Life Sciences, Hopkinton, Mass.) was used to measure inhibition of the immunoproteasome LMP7/B5i subunit, the immunoproteasome LPM2/β1i subunit, and the constitutive proteasome β5c unit for a compound of Formula (I). For LMP7 and β5c, serial dilutions of test compounds were incubated with either human recombinant immunoprotcasome or constitutive proteasome (0.3 nM enzyme) and a carboxyfluorescein (FAM)-labeled peptide substrate FAM-TYETFKSIMKKSPF-NH2 (1 μM) at it for 3 h. The reaction was then terminated with a buffer containing the known proteasome inhibitor carfilzomib at a concentration of 5 uM. For LMP2, serial dilutions of test compounds were incubated with human recombinant immunoproteasome proteasome (0.3 nM enzyme) and a carboxyfluorescein (FAM)-labeled peptide substrate FAM-[…]-NH2 (1 μM) at rt for 2 h. The reaction was then terminated with a buffer containing the known proteasome inhibitor ixazomib at a concentration of 6.7 uM. The reaction buffer was 20 mM Hepes pH 7.4, 0.01% bovine serum albumin, 0.015% SDS, 0.5 mM EDTA, 1%0/DMSO. The peptide cleavage reaction product was quantified on a Caliper LabChip 3000. Percent inhibition was calculated for each compound dilution and the concentration that produced 50% inhibition was calculated. This value is presented as the IC50.

[2] = target: immunoproteasome LMP7/B5i subunit (Homo sapiens, UniProt P20618+P28062); experiment: Caliper-based proteasome enzymatic activity assay, LMP7; type: biochemical; details: human recombinant immunoproteasome 0.3 nM, FAM-peptide substrate 1 μM, 3 h at rt
Description: as §1

Row | SMILES | IC50 [1] | IC50 [2]
1 | C=CC(=O)N1CCC(F)(F)C[C@@H]1COC(=O)N[C@@H](Cc1coc2ccccc12)B(O)O [Example 112, ((R)-1-(((((R)-1-acryloyl-4,4-difluoropiperidin-2-yl)methoxy)carbonyl)amino)-2-(benzofuran-3-yl)ethyl)boronic acid] | 95 nM | 2.5 nM
2 | CC(C)(/C=C(/C#N)C(=O)N1CCCC[C@@H]1COC(=O)N[C@@H](Cc1ccccc1)B(O)O)N1CCC(F)(F)C1 [Example 103, ((R)-1-(((((R)-1-((Z)-2-cyano-4-(3,3-difluoropyrrolidin-1-yl)-4-methylpent-2-enoyl)piperidin-2-yl)methoxy)carbonyl)amino)-2-phenylethyl)boronic acid] | 2310 nM | 5.3 nM
3 | Cc1ccc(C[C@H](NC(=O)OC[C@H]2[C@H]3C[C@H]3CN2C(=O)C(C#N)=CC(C)(C)N2CCC(F)(F)C2)B(O)O)cc1 [Example 116, ((R)-1-(((((1S,2R,5R)-3-(2-cyano-4-(3,3-difluoropyrrolidin-1-yl)-4-methylpent-2-enoyl)-3-azabicyclo[3.1.0]hexan-2-yl)methoxy)carbonyl)amino)-2-(p-tolyl)ethyl)boronic acid] | > 5000 nM | 62 nM
4 | CC(C)(C=C(C#N)C(=O)N1CCC[C@]1(C)COC(=O)N[C@@H](Cc1ccc(F)cc1)B(O)O)N1CCC(F)(F)C1 [Example 120, ((R)-1-(((((R)-1-(2-cyano-4-(3,3-difluoropyrrolidin-1-yl)-4-methylpent-2-enoyl)-2-methylpyrrolidin-2-yl)methoxy)carbonyl)amino)-2-(4-fluorophenyl)ethyl)boronic acid] | > 5000 nM | 530 nM
5 | CC(C)(C)C=C(C#N)C(=O)N1CCCC[C@@H]1COC(=O)N[C@@H](CCc1ccccc1)B(O)O [Example 50, ((R)-1-(((((R)-1-(2-cyano-4,4-dimethylpent-2-enoyl)piperidin-2-yl)methoxy)carbonyl)amino)-3-phenylpropyl)boronic acid] | > 5000 nM | 9.8 nM
6 | CC(C)(C=C(C#N)C(=O)N1C[C@@H]2C[C@@H]2[C@@H]1COC(=O)N[C@@H](Cc1coc2ccccc12)B(O)O)N1CCC(F)(F)C1 [Example 54, ((R)-2-(benzofuran-3-yl)-1-(((((1S,2R,5R)-3-(2-cyano-4-(3,3-difluoropyrrolidin-1-yl)-4-methylpent-2-enoyl)-3-azabicyclo[3.1.0]hexan-2-yl)methoxy)carbonyl)amino)ethyl)boronic acid] | 192 nM | 1.6 nM
7 | CC(C)(C=C(C#N)C(=O)N1CCOC[C@@H]1COC(=O)N[C@@H](Cc1coc2ccccc12)B(O)O)N1CCOCC1 [Example 58, ((R)-2-(benzofuran-3-yl)-1-(((((R)-4-(2-cyano-4-methyl-4-morpholinopent-2-enoyl)morpholin-3-yl)methoxy)carbonyl)amino)ethyl)boronic acid] | 23 nM | 0.8 nM
8 | CC(=O)N1CCN(C(C)(C)C=C(C#N)C(=O)N2CCC[C@@H]2COC(=O)N[C@@H](Cc2coc3ccccc23)B(O)O)CC1 [Example 53, ((R)-1-(((((R)-1-(4-(4-acetylpiperazin-1-yl)-2-cyano-4-methylpent-2-enoyl)pyrrolidin-2-yl)methoxy)carbonyl)amino)-2-(benzofuran-3-yl)ethyl)boronic acid] | 205 nM | 1.8 nM
9 | CC(C)(C)C=C(C#N)C(=O)N1CCOC[C@@H]1COC(=O)N[C@@H](Cc1ccccc1)B(O)O [Example 69, ((R)-1-(((((R)-4-(2-cyano-4,4-dimethylpent-2-enoyl)morpholin-3-yl)methoxy)carbonyl)amino)-2-phenylethyl)boronic acid] | 670 nM | 3.2 nM
10 | CC(C)(C=C(C#N)C(=O)N1CCCC[C@@H]1COC(=O)N[C@@H](CCc1ccccc1)B(O)O)N1CCC(F)(F)C1 [Example 101, ((R)-1-(((((R)-1-(2-cyano-4-(3,3-difluoropyrrolidin-1-yl)-4-methylpent-2-enoyl)piperidin-2-yl)methoxy)carbonyl)amino)-3-phenylpropyl)boronic acid] | > 5000 nM | 1.7 nM
11 | C=CC(=O)N1C[C@@H]2C[C@@H]2[C@@H]1COC(=O)N[C@@H](Cc1coc2ccccc12)B(O)O [Example 52, ((R)-1-(((((1S,2R,5R)-3-acryloyl-3-azabicyclo[3.1.0]hexan-2-yl)methoxy)carbonyl)amino)-2-(benzofuran-3-yl)ethyl)boronic acid] | 336 nM | 1.3 nM
12 | CC(C)(C=C(C#N)C(=O)N1C[C@@H]2C[C@@H]2[C@@H]1COC(=O)N[C@@H](Cc1ccc(C(F)(F)F)cc1)B(O)O)N1CCOCC1 [Example 114] | 2540 nM | 2.3 nM
13 | CN(C)C/C=C/C(=O)N1CCC[C@@H]1COC(=O)N[C@@H](Cc1coc2ccccc12)B(O)O [Example 49, ((R)-2-(benzofuran-3-yl)-1-(((((R)-1-((E)-4-(dimethylamino)but-2-enoyl)pyrrolidin-2-yl)methoxy)carbonyl)amino)ethyl)boronic acid] | 149 nM | 1.3 nM
14 | CC(C)(C=C(C#N)C(=O)N1CCOC[C@@H]1COC(=O)N[C@@H](Cc1coc2ccccc12)B(O)O)N1CCC(F)(F)C1 [Example 65, ((R)-2-(benzofuran-3-yl)-1-(((((R)-4-(2-cyano-4-(3,3-difluoropyrrolidin-1-yl)-4-methylpent-2-enoyl)morpholin-3-yl)methoxy)carbonyl)amino)ethyl)boronic acid] | 60 nM | 2.3 nM
15 | Cc1ccc(C[C@H](NC(=O)OC[C@H]2COCCN2C(=O)C(C#N)=CC(C)(C)C)B(O)O)cc1 [Example 73, ((R)-1-(((((R)-4-(2-cyano-4,4-dimethylpent-2-enoyl)morpholin-3-yl)methoxy)carbonyl)amino)-2-(p-tolyl)ethyl)boronic acid] | 288 nM | 2.7 nM
16 | C=CC(=O)N1C[C@@H]2C[C@@H]2[C@@H]1COC(=O)N[C@@H](Cc1ccc(C(F)(F)F)cc1)B(O)O [Example 115, ((R)-1-(((((1S,2R,5R)-3-acryloyl-3-azabicyclo[3.1.0]hexan-2-yl)methoxy)carbonyl)amino)-2-(4-(trifluoromethyl)phenyl)ethyl)boronic acid] | 2930 nM | 2.6 nM
17 | Cc1ccc(C[C@H](NC(=O)OC[C@H]2[C@H]3C[C@H]3CN2C(=O)C(C#N)=CC(C)(C)N2CCOCC2)B(O)O)cc1 [Example 75] | 1020 nM | 1.1 nM
18 | CN(C)C/C=C/C(=O)N1C[C@@H]2C[C@@H]2[C@@H]1COC(=O)N[C@@H](Cc1coc2ccccc12)B(O)O [Example 87, ((R)-2-(benzofuran-3-yl)-1-(((((1S,2R,5R)-3-((E)-4-(dimethylamino)but-2-enoyl)-3-azabicyclo[3.1.0]hexan-2-yl)methoxy)carbonyl)amino)ethyl)boronic acid] | 1010 nM | 13 nM
19 | CC(C)(C=C(C#N)C(=O)N1CCCC[C@@H]1COC(=O)N[C@@H](Cc1ccc(C#N)cc1)B(O)O)N1CCC(F)(F)C1 [Example 122, ((R)-1-(((((R)-1-(2-cyano-4-(3,3-difluoropyrrolidin-1-yl)-4-methylpent-2-enoyl)piperidin-2-yl)methoxy)carbonyl)amino)-2-(4-cyanophenyl)ethyl)boronic acid] | 4180 nM | 1.5 nM
20 | C=CC(=O)N1C[C@@H]2C[C@@H]2[C@@H]1COC(=O)N[C@@H](Cc1ccc(F)cc1)B(O)O [Example 109, ((R)-1-(((((1S,2R,5R)-3-acryloyl-3-azabicyclo[3.1.0]hexan-2-yl)methoxy)carbonyl)amino)-2-(4-fluorophenyl)ethyl)boronic acid] | 3320 nM | 6.4 nM
21 | C=C(F)C(=O)N1CCC[C@]1(C)COC(=O)N[C@@H](Cc1ccc(F)cc1)B(O)O [Example 121, ((R)-1-(((((R)-1-(2-fluoroacryloyl)-2-methylpyrrolidin-2-yl)methoxy)carbonyl)amino)-2-(4-fluorophenyl)ethyl)boronic acid] | 1750 nM | 1.9 nM
22 | Cc1ccc(C[C@H](NC(=O)OC[C@H]2[C@H]3C[C@H]3CN2C(=O)C(C#N)=CC2(C)CCOCC2)B(O)O)cc1 [Example 92, ((R)-1-(((((1S,2R,5R)-3-(2-cyano-3-(4-methyltetrahydro-2H-pyran-4-yl)acryloyl)-3-azabicyclo[3.1.]hexan-2-yl)methoxy)carbonyl)amino)-2-(p-tolyl)ethyl)boronic acid] | 2240 nM | 1.9 nM
23 | CC(C)(C=C(C#N)C(=O)N1C[C@@H]2C[C@@H]2[C@@H]1COC(=O)N[C@@H](Cc1ccc(F)cc1)B(O)O)N1CCOCC1 [Example 123, ((R)-1-(((((1S,2R,5R)-3-(2-cyano-4-methyl-4-morpholinopent-2-enoyl)-3-azabicyclo[3.1.0]hexan-2-yl)methoxy)carbonyl)amino)-2-(4-fluorophenyl)ethyl)boronic acid] | > 5000 nM | 550 nM
24 | CN(CC(F)(F)F)C(C)(C)C=C(C#N)C(=O)N1CCCC[C@@H]1COC(=O)N[C@@H](Cc1ccccc1)B(O)O [Example 97, ((R)-1-(((((R)-1-(2-cyano-4-methyl-4-(methyl(2,2,2-trifluoroethyl)amino)pent-2-enoyl)piperidin-2-yl)methoxy)carbonyl)amino)-2-phenylethyl)boronic acid] | 3970 nM | 5 nM
